# What was measured:
# UWB1.289 cells = experiment: Cell proliferation inhibitory activity in BRCA1/2-mutant or HRD-positive cells (Cell Titer-Glo); format: cell-based; details: UWB1289; UWB1.289 cells, 144 hours after compound treatment, Cell Titer-Glo, 1.5 nM to 10 µM; read-out: GI50 UWB1.289 BRCA1 mut
# Outline: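 UWB1.289 cells (1,000/well) in 50% MEBM/50% RPMI1640 exposed to […], final 1.5 nM to 10 µM, for 144 h at 37 °C. Viable cells measured by CellTiter-Glo luminescence; GI50 calculated.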
# recombinant USP1 protein = target: T1, recombinant USP1 protein (Homo sapiens, UniProt O94782, DEL125-138/DEL229-408/DEL608-737); experiment: Binding affinity to recombinant USP1 protein by differential scanning fluorimetry; details: compound 100 µM; 0.03 mg/mL USP1 (Δ1-66, Δ125-138, Δ229-408, Δ608-737); Tm with compound minus Tm with DMSO; read-out: ΔTm (°C)
# T1 sequence (O94782 with tags, fused parts or gaps DEL125-138/DEL229-408/DEL608-737): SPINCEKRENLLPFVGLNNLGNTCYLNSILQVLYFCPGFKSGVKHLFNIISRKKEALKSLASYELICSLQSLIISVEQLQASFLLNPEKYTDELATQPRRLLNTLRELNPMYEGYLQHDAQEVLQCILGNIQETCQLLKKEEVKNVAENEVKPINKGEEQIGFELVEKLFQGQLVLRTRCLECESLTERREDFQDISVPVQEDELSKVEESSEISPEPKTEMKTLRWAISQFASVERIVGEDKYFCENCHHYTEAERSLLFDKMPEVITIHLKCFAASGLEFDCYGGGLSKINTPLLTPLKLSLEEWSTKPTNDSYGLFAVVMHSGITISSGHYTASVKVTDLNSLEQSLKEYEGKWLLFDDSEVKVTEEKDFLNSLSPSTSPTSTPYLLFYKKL
# Outline: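 USP1 (Δ1-66, Δ125-138, Δ229-408, Δ608-737) at 0.03 mg/mL with dye in 50 mM Tris-HCl pH 8.0, 150 mM NaCl, 2% glycerol, 1 mM DTT; compounds at 100 µM final. Tm read on real-time PCR instrument; ΔTm = Tm with compound minus Tm with DMSO.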
SMILES,GI50 (UWB1.289 cells),ΔTm at 100 µM (recombinant USP1 protein)
"CCn1cc(C(F)(F)F)nc1-c1ccc(Cn2c(C(=O)NC)cc3cnc(-c4c(OC)ncnc4C4CC4)nc32)cc1 [Example 68, 2-(4-cyclopropyl-6-methoxypyrimidin-5-yl)-7-(4-(1-ethyl-4-(trifluoromethyl)-1H-imidazol-2-yl)benzyl)-N-methyl-7H-pyrrolo[2,3-d]pyrimidine-6-carboxamide]",< 100 nM,> 5 °C
"COc1ncnc(C2CC2)c1-c1ncc2cc(C(=O)NC3CCN(C)CC3)n(Cc3ccc(-c4nc(C(F)(F)F)cn4C(C)C)cc3)c2n1 [Example 69, 2-(4-cyclopropyl-6-methoxypyrimidin-5-yl)-7-(4-(1-isopropyl-4-(trifluoromethyl)-1H-imidazol-2-yl)benzyl)-N-(1-methylpiperidin-4-yl)-7H-pyrrolo[2,3-d]pyrimidine-6-carboxamide]",< 100 nM,> 5 °C
"COc1ncnc(C2CC2)c1-c1ncc2cc(C(=O)N(C)CC(F)(F)F)n(Cc3ccc(-c4nc(C(F)(F)F)cn4C(C)C)cc3)c2n1 [Example 70, 2-(4-cyclopropyl-6-methoxypyrimidin-5-yl)-7-(4-(1-isopropyl-4-(trifluoromethyl)-1H-imidazol-2-yl)benzyl)-N-methyl-N-(2,2,2-trifluoroethyl)-7H-pyrrolo[2,3-d]pyrimidine-6-carboxamide]",100 to 500 nM,> 5 °C
"COCC1CN(C(=O)c2cc3cnc(-c4c(OC)ncnc4C4CC4)nc3n2Cc2ccc(-c3nc(C(F)(F)F)cn3C(C)C)cc2)C1 [Example 71, (2-(4-cyclopropyl-6-methoxypyrimid in-5-yl)-7-(4-(1-isopropyl-4-(trifluoromethyl)-1H-imidazol-2-yl)benzyl)-7H-pyrrolo[2,3-d]pyrimidin-6-yl) (3-(methoxymethyl)azetidin-1-yl)methanone]",< 100 nM,> 5 °C
"COc1ncnc(C2CC2)c1-c1ncc2cc(C(=O)N3CCC(F)(F)C3)n(Cc3ccc(-c4nc(C(F)(F)F)cn4C(C)C)cc3)c2n1 [Example 73, (2-(4-cyclopropyl-6-methoxypyrimid in-5-yl)-7-(4-(1-isopropyl-4-(trifluoromethyl)-1H-imidazol-2-yl)benzyl)-7H-pyrrolo[2,3-d]pyrimidin-6-yl)(3,3-difluoropyrrolidin-1-yl)methanone]",100 to 500 nM,> 5 °C
"COc1ncnc(C2CC2)c1-c1ncc2cc(C(=O)N3CC(CS(C)(=O)=O)C3)n(Cc3ccc(-c4nc(C(F)(F)F)cn4C(C)C)cc3)c2n1 [Example 75, (2-(4-cyclopropyl-6-methoxypyrimid in-5-yl)-7-(4-(1-isopropyl-4-(trifluoromethyl)-1H-imidazol-2-yl)benzyl)-7H-pyrrolo[2,3-d]pyrimidin-6-yl) (3-((methylsulfonyl)methyl)azetidin-1-yl)methanone]",100 to 500 nM,> 5 °C
"COc1ncnc(C2CC2)c1-c1ncc2cc(C(=O)NC3CCS(=O)(=O)C3)n(Cc3ccc(-c4nc(C(F)(F)F)cn4C(C)C)cc3)c2n1 (stereo not drawn) [Example 78, 2-(4-cyclopropyl-6-methoxypyrimidin-5-yl)-N-(1,1-dioxidotetrahydrothiophen-3-yl)-7-(4-(1-isopropyl-4-(trifluoromethyl)-1H-imidazol-2-yl)benzyl)-7H-pyrrolo[2,3-d]pyrimidine-6-carboxamide]",100 to 500 nM,> 5 °C
"COc1ncnc(C2CC2)c1-c1ncc2cc(C(=O)NC3(C)CC3)n(Cc3ccc(-c4nc(C(F)(F)F)cn4C(C)C)cc3)c2n1 [Example 79, 2-(4-cyclopropyl-6-methoxypyrimidin-5-yl)-7-(4-(1-isopropyl-4-(trifluoromethyl)-1H-imidazol-2-yl)benzyl)-N-(1-methylcyclopropyl)-7H-pyrrolo[2,3-d]pyrimidine-6-carboxamide]",100 to 500 nM,> 5 °C
"COc1ncnc(C2CC2)c1-c1ncc2cc(C(=O)NCC3CCC(F)(F)C3)n(Cc3ccc(-c4nc(C(F)(F)F)cn4C(C)C)cc3)c2n1 (stereo not drawn) [Example 80, 2-(4-cyclopropyl-6-methoxypyrimidin-5-yl)-N-((3,3-difluorocyclopentyl)methyl)-7-(4-(1-isopropyl-4-(trifluoromethyl)-1H-imidazol-2-yl)benzyl)-7H-pyrrolo[2,3-d]pyrimidine-6-carboxamide]",100 to 500 nM,> 5 °C
"CC[C@H](C)NC(=O)c1cc2cnc(-c3c(OC)ncnc3C3CC3)nc2n1Cc1ccc(-c2nc(C(F)(F)F)cn2C(C)C)cc1 [Example 82, (S)-N-(sec-butyl)-2-(4-cyclopropyl-6-methoxypyrimidin-5-yl)-7-(4-(1-isopropyl-4-(trifluoromethyl)-1H-imidazol-2-yl)benzyl)-7H-pyrrolo[2,3-d]pyrimidine-6-carboxamide]",< 100 nM,> 5 °C
"COc1ncnc(C2CC2)c1-c1ncc2cc(C(=O)N[C@H](C)CCO)n(Cc3ccc(-c4nc(C(F)(F)F)cn4C(C)C)cc3)c2n1 [Example 83, (R)-2-(4-cyclopropyl-6-methoxypyrimidin-5-yl)-N-(4-hydroxybutan-2-yl)-7-(4-(1-isopropyl-4-(trifluoromethyl)-1H-imidazol-2-yl)benzyl)-7H-pyrrolo[2,3-d]pyrimidine-6-carboxamide]",< 100 nM,> 5 °C
"COc1ncnc(C2CC2)c1-c1ncc2cc(C(=O)N[C@H](C)C(F)(F)F)n(Cc3ccc(-c4nc(C(F)(F)F)cn4C(C)C)cc3)c2n1 [Example 85, (R)-2-(4-cyclopropyl-6-methoxypyrimidin-5-yl)-7-(4-(1-isopropyl-4-(trifluoromethyl)-1H-imidazol-2-yl)benzyl)-N-(1,1,1-trifluoropropan-2-yl)-7H-pyrrolo[2,3-d]pyrimidine-6-carboxamide]",100 to 500 nM,> 5 °C
"COc1ncnc(C2CC2)c1-c1ncc2cc(C(=O)N[C@@H](C)C(F)(F)F)n(Cc3ccc(-c4nc(C(F)(F)F)cn4C(C)C)cc3)c2n1 [Example 86, (S)-2-(4-cyclopropyl-6-methoxypyrimidin-5-yl)-7-(4-(1-isopropyl-4-(trifluoromethyl)-1H-imidazol-2-yl)benzyl)-N-(1,1,1-trifluoropropan-2-yl)-7H-pyrrolo[2,3-d]pyrimidine-6-carboxamide]",< 100 nM,> 5 °C
"COc1ncnc(C2CC2)c1-c1ncc2cc(C(=O)NCC3CCN(C)CC3)n(Cc3ccc(-c4nc(C(F)(F)F)cn4C(C)C)cc3)c2n1 [Example 87, 2-(4-cyclopropyl-6-methoxypyrimidin-5-yl)-7-(4-(1-isopropyl-4-(trifluoromethyl)-1H-imidazol-2-yl)benzyl)-N-((1-methylpiperidin-4-yl)methyl)-7H-pyrrolo[2,3-d]pyrimidine-6-carboxamide]",100 to 500 nM,> 5 °C
"COc1ncnc(C2CC2)c1-c1ncc2cc(C(=O)NC34CC(F)(C3)C4)n(Cc3ccc(-c4nc(C(F)(F)F)cn4C(C)C)cc3)c2n1 [Example 89, 2-(4-cyclopropyl-6-methoxypyrimidin-5-yl)-N-(3-fluorobicyclo[1.1.1]pentan-1-yl)-7-(4-(1-isopropyl-4-(trifluoromethyl)-1H-imidazol-2-yl)benzyl)-7H-pyrrolo[2,3-d]pyrimidine-6-carboxamide]",100 to 500 nM,> 5 °C
"COc1ncnc(C2CC2)c1-c1ncc2cc(C(=O)NCCC3CC(F)(F)C3)n(Cc3ccc(-c4nc(C(F)(F)F)cn4C(C)C)cc3)c2n1 [Example 90, 2-(4-cyclopropyl-6-methoxypyrimidin-5-yl)-N-(2-(3,3-difluorocyclobutyl)ethyl)-7-(4-(1-isopropyl-4-(trifluoromethyl)-1H-imidazol-2-yl)benzyl)-7H-pyrrolo[2,3-d]pyrimidine-6-carboxamide]",< 100 nM,> 5 °C
"COc1ncnc(C2CC2)c1-c1ncc2cc(C(=O)N3CCC4(CC3)CNCCO4)n(Cc3ccc(-c4nc(C(F)(F)F)cn4C(C)C)cc3)c2n1 [Example 94, (2-(4-cyclopropyl-6-methoxypyrimid in-5-yl)-7-(4-(1-isopropyl-4-(trifluoromethyl)-1H-imidazol-2-yl)benzyl)-7H-pyrrolo[2,3-d]pyrimidin-6-yl)(1-oxa-4,9-diazaspiro[5.5]undecan-9-yl)methanone]",100 to 500 nM,> 5 °C
"CNC(=O)c1cc2cnc(-c3c(OC(F)F)ncnc3C3CC3)nc2n1Cc1ccc(-c2nc(C(F)(F)F)cn2C(C)C)cc1 [Example 95, 2-(4-cyclopropyl-6-(difluoromethoxy)pyrimidin-5-yl)-7-(4-(1-isopropyl-4-(trifluoromethyl)-1H-imidazol-2-yl)benzyl)-N-methyl-7H-pyrrolo[2,3-d]pyrimidine-6-carboxamide]",100 to 500 nM,> 5 °C
